The values below come from US20130109581A1, “POSITIVELY CHARGED SPECIES AS BINDING REAGENTS IN THE SEPARATION OF PROTEIN AGGREGATES FROM MONOMERS” (priority 2009, published 2013).

The target of test [1] is T1, AA-related moieties (serum amyloid A aggregates) (Mus musculus, UniProt P05367).
T1 construct: These experiments indicate that PSR1-coated beads can capture AA-related moieties; from tissue; host or cells: spleen homogenate of mice with induced AA amyloidosis
As to the kind of experiment: PSR-1 bead-based capture of AA species from spleen homogenates. It is filed as binding. As for the experimental part:
Amyloid enhancing factor (AEF) was extracted from amyloid-laden liver as described earlier, and used for amyloid induction in four different groups of mice. Each mouse received 20 ug of protein extract as an intravenous injection in the tail vein and systemic inflammation was stimulated by concomitant subcutaneous injection of 0.2 ml 1% silver nitrate (AgNO3). Further inflammatory stimuli were given once a week on day 7, 14 and 21. Mice were sacrificed in several time points on day 5, 9, 16 and 23. Control mice received only single silver nitrate injection and were sacrificed 16 hrs later.
10% spleen homogenates were prepared in PBS, […], using an ultra-sound tissue homogenizator. Homogenates were centrifuged at 200×g for 1 min and the supernatants were used for the PSR1 bead-based capture assay. For immunoblotting analysis the PBS-insoluble tissue pellet was solubilised in 8M urea for 24 hrs on a wheel at room temperature.
PSR1-conjugated beads were washed two times with 1 ml of TBS-TT (TBS, 1% TritonX, 1% Tween20) before incubation with 10% spleen homogenate in a total volume of 100 μl TBS-TT for 1 hr at 37° C. and under shaking at 750 rpm. […] 150 ul of eluate was aspirated from the beads and the presence of SAA/AA proteins were analysed using the mouse SAA ELISA from Tridelta Ltd. or by immunoblotting. […]

Test [2] concerns the target alpha synuclein fibrils (Homo sapiens, UniProt P37840). As to the kind of experiment: MPA of alpha-synuclein fibrils in CSF or plasma. It is filed as binding. As for the experimental part:
Amylin fibrils were prepared as reported in J. Biological Chem. (1999) 274, No. 28, pp 19509-19512. To denature the fibrils, samples were treated with 5.4 M guanidine thiocyanate for 30 minutes at room temperature. The samples were then diluted to the indicated concentrations and alpha synuclein was detected by a sandwich ELISA (Invitrogen; catalog #KHB0061) according to the manufacturer's instructions.
The specificity of PSR1 beads for aggregated alpha synuclein was tested by incubating 3 ul PSR1 beads with fibrillar alpha-synuclein with or without a pretreatment with chemical denaturant (5.4 M guanidine thiocyanate for 30 minutes at room temperature). Alpha synuclein was diluted into 125 ul 80% CSF or plasma in TBSTT (50 mM Tris, 150 mM NaCl, 1% TritonX-100, 1% Tween20) at the indicated concentrations. Samples were incubated for 1 hour at 37 C and 550 rpm before washing with TBS 0.05% Tween20 buffer. Bound alpha synuclein was eluted from the beads with 4 ul 6 M guanidine thiocyanate (30 minutes at room temperature), diluted with 246 ul ELISA diluent buffer and then detected by sandwich ELISA (Invitrogen; catalog #KHB0061).

T1 sequence (P05367 20-94 limits assumed): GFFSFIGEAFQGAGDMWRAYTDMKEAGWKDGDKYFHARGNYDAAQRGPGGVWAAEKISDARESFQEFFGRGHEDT

Nab-Nab-Nab-Nbn-Nab-Nbn [PSR1]: the “SAA detected in eluates (sandwich ELISA)” value in test [1] (3 uL PSR1 beads, spleen homogenate with splenic AA vs untreated control) is “SAA could be detected only in the eluates from the AA-containing sample”. Besides, in test [1] (denatured, buffered and undenatured AA-containing samples, FIG. 44), the “SAA detected in eluates after denaturation of input” value was “SAA could be detected only in the eluates from undenatured or buffered AA-containing samples”. In test [2] (diluted into CSF or plasma, FIG. 50), the “binding to alpha synuclein fibrils compared to control bead” value was “specifically bound to alpha synuclein (aSyn) fibrils”. For the same substance, in test [2] (native vs denatured aSyn in CSF or plasma, FIG. 51), the “binding to alpha synuclein fibrils vs monomers” value was “bound preferentially to alpha synuclein fibrils”.
